In general, melting point refers to the temperature of the solid-liquid transition.

For the compound `O=C(c1ccc2c(c1)[nH]c(=O)c1nnc(C3CCOCC3)n12)N1Cc2ccccc2C1`, the melting point was 303 °C (dec.).
`Cc1cc2c(cc1C(=O)N1CCc3ccccc31)[nH]c(=O)c1cnc(C3CCOCC3)n12.Cl` had a melting point of 216 to 219 °C.
Compound `Cc1ccc2c(c1)CN(C(=O)c1cc3[nH]c(=O)c4cnc(C5CCOCC5)n4c3cc1C)C2` showed a melting point of 203 to 205 °C.
In the case of `Cc1cc2c(cc1C(=O)N1CCc3cccnc31)[nH]c(=O)c1cnc(C3CCOCC3)n12`, the melting point was 341 °C (dec.).
Turning to `Cc1cc2c(cc1C(=O)N1Cc3cccc(Cl)c3C1)[nH]c(=O)c1cnc(C3CCOCC3)n12.Cl`, the melting point lay in the range of 198 to 200 °C.
For `CCCc1nnc2c(=O)[nH]c3cc(C(=O)N4CCc5c(Cl)cccc5C4)c(C)cc3n12` the value was 198 to 202 °C; for `Cc1cc2c(cc1C(=O)N1Cc3c(F)ccc(F)c3C1)[nH]c(=O)c1cnc(C3CCOCC3)n12.Cl`, 199 to 201 °C (dec.); for `Cc1cc2c(cc1C(=O)N1Cc3cccc(C#N)c3C1)[nH]c(=O)c1cnc(C3CCOCC3)n12.Cl`, 328 °C (dec.).
As to `COc1cccc2c1CN(C(=O)c1cc3[nH]c(=O)c4cnc(C5CCOCC5)n4c3cc1C)C2.Cl`, the melting point is 209 °C (dec.).
As for `Cc1cc2c(cc1C(=O)N1Cc3cccc(C4CC4)c3C1)[nH]c(=O)c1cnc(C3CCOCC3)n12.Cl`, the melting point was 286 °C (dec.).
`Cc1cc2c(cc1C(=O)N1Cc3cccc(I)c3C1)[nH]c(=O)c1cnc(C3CCOCC3)n12.Cl`: the melting point is 313 °C (dec.).
`Cc1cc2c(cc1C(=O)N1CCc3ccc(Cl)cc31)[nH]c(=O)c1cnc(C3CCOCC3)n12.Cl` had a melting point of 188 to 189 °C.
`COc1cc2c(cn1)N(C(=O)c1cc3[nH]c(=O)c4cnc(C5CCOCC5)n4c3cc1C)CC2` returned a melting point of 232 to 233 °C.
As to `Cc1cc2c(cc1C(=O)N1CCc3cnn(C)c3C1)[nH]c(=O)c1cnc(C3CCOCC3)n12`, the melting point was 192 to 194 °C (dec.).
Consider `Cc1cc2c(cc1C(=O)N1CCc3c(Cl)cccc31)[nH]c(=O)c1cnc(C3CCOCC3)n12.Cl`, for which the melting point fell in the range of 272 to 273 °C.
Next, `Cc1cc2c(cc1C(=O)N1CCc3cc(F)c(Cl)cc31)[nH]c(=O)c1cnc(C3CCOCC3)n12.Cl`: 315 °C (dec.); `Cc1cc2c(cc1C(=O)N1Cc3ccc(Cl)cc3C1)[nH]c(=O)c1cnc(C3CCCOC3)n12.Cl` (stereo not shown): 200 to 203 °C.
Turning to `Cc1ccc2c(c1)CCN2C(=O)c1cc2[nH]c(=O)c3cnc(C4CCCOC4)n3c2cc1C.Cl` (stereo not shown), the melting point fell in the range of 204 to 206 °C.
On to `Cc1ccc2c(c1)CCN2C(=O)c1cc2[nH]c(=O)c3cnc(C4CCOC4)n3c2cc1C.Cl` (stereo not shown), for which the melting point is 186 to 188 °C (dec.).
`Cc1cc2c(cc1C(=O)N1Cc3ccc(Cl)cc3C1)[nH]c(=O)c1cnc(C3CCOC3)n12.Cl` (stereo not shown) displayed a melting point of 185 to 187 °C.
As for `Cc1cc2c(cc1C(=O)N1Cc3cccc(C)c3C1)[nH]c(=O)c1cnc(C3CCOC3)n12.Cl` (stereo not shown), the melting point is 270 to 272 °C (dec.).
For `Cc1cnc2c(c1)CCN2C(=O)c1cc2[nH]c(=O)c3cnc(C4CCOCC4)n3c2cc1C` the value was 313 to 315 °C.
Next, `Cc1cc2c(cc1C(=O)N1Cc3cccc(C)c3C1)[nH]c(=O)c1nnc(C3CCOC3)n12.Cl` (stereo not shown): 311 °C (dec.); `Cc1cc2c(cc1C(=O)N1CCc3onc(-c4ccc(F)cc4)c3C1)[nH]c(=O)c1nnc(C3CCOC3)n12` (stereo not shown): 282 to 284 °C (dec.).
In the case of `COc1cc2c(cc1C(=O)N1CCc3cc(Cl)ccc31)[nH]c(=O)c1cnc(C3CCOCC3)n12.Cl`, the melting point is 328 to 330 °C (dec.).
In turn, `Cc1cc2c(cc1C(=O)N1Cc3cccc(F)c3C1)[nH]c(=O)c1cnc(C3CCOC3)n12.Cl` (stereo not shown) returned a melting point of 203 to 205 °C.
For `Cc1cc2c(cc1C(=O)N1Cc3ccccc3C1)[nH]c(=O)c1nnc(C3(C)CCOCC3)n12` the value was 232 °C (dec.).
`Cl.O=C(c1cc2[nH]c(=O)c3cnc(C4CCOCC4)n3c2cc1Cl)N1CCc2cc(Cl)ccc21`: the melting point is 352 °C (dec.).
For `COc1cc2c(cn1)N(C(=O)c1cc3[nH]c(=O)c4nnc(C5CCCC5)n4c3cc1C)CC2`, the melting point was 263 to 265 °C.
In turn, `Cc1cc2c(cc1C(=O)N1CCN(C)C(c3ccccc3)C1)[nH]c(=O)c1cnc(C3CCOCC3)n12` (stereo not shown) registered a melting point of 189 to 192 °C.
Next, `Cl.O=C(c1cc2[nH]c(=O)c3cnc(C4CCOCC4)n3c2cc1C1CC1)N1Cc2ccc(Cl)cc2C1`: 199 to 203 °C (dec.); `COc1cc2c(cc1C(=O)N1Cc3ccc(Cl)cc3C1)[nH]c(=O)c1cnc(C3CCOCC3)n12.Cl`: 210 to 213 °C (dec.).
`Cc1cc2c(cc1C(=O)N1CCc3cc(Cl)ccc31)[nH]c(=O)c1nnc(C3CCC(F)(F)CC3)n12`: the melting point is 230 to 233 °C.
In the case of `COc1cc2c(cn1)N(C(=O)c1cc3[nH]c(=O)c4cnc(C5CCOCC5)n4c3cc1C1CC1)CC2`, the melting point is 241 °C (dec.).
In the case of `Cc1cc2c(cc1C(=O)N1Cc3cccc(F)c3C1)[nH]c(=O)c1cnc(C3CCOCC3)n12.Cl`, the melting point was 201 to 203 °C.
For the compound `Cl.O=C(c1cc2[nH]c(=O)c3cnc(C4CCOCC4)n3c2cc1Cl)N1Cc2ccccc2C1`, the melting point is 332 °C (dec.).
`Cc1cc2c(cc1C(=O)N1CCc3cc(F)ccc31)[nH]c(=O)c1nnc(C3CCCOC3)n12.Cl` (stereo not shown) displayed a melting point of 235 to 237 °C.
Next, `Cc1cc2c(cc1C(=O)N1Cc3ccccc3C1)[nH]c(=O)c1nnc(C3CCOC3)n12.Cl` (stereo not shown): 223 to 224 °C; `Cc1cc2c(cc1C(=O)N1CCc3ncccc3C1)[nH]c(=O)c1cnc(C3CCOCC3)n12`: 236 to 239 °C; `Cc1cc2c(cc1C(=O)N1Cc3ccccc3C1)[nH]c(=O)c1nnc(C3CCCOC3)n12.Cl` (stereo not shown): 303 °C (dec.).
Take `O=C(c1cc2[nH]c(=O)c3nnc(C4CCOCC4)n3c2cc1Br)N1Cc2ccccc2C1`: the melting point was 350 °C (dec.).
In turn, `Cc1cc2c(cc1C(=O)N1CCc3cc(F)ccc31)[nH]c(=O)c1c(C)nc(C3CCOCC3)n12` gave a melting point of 177 to 180 °C.
Take `Cc1cc2c(cc1C(=O)N1CCc3cccnc31)[nH]c(=O)c1c(C)nc(C3CCOCC3)n12`: the melting point was 192 °C (dec.).
Next, `COCc1cc2c(cc1C(=O)N1CCc3cc(F)ccc31)[nH]c(=O)c1cnc(C3CCOCC3)n12.Cl`: 301 to 304 °C (dec.); `COCc1cc2c(cc1C(=O)N1Cc3ccccc3C1)[nH]c(=O)c1cnc(C3CCOCC3)n12.Cl`: 261 to 264 °C (dec.).
`Cc1c(C(=O)N2Cc3ccccc3C2)ccc2c1[nH]c(=O)c1cnc(C3CCOCC3)n12.Cl` yielded a melting point of 183 to 186 °C.
As for `Cc1cc2c(cc1C(=O)N1CCc3cc(C4CC4)cnc31)[nH]c(=O)c1nnc(C3CCOCC3)n12`, the melting point was in the range of 210 to 212 °C.
For `Cc1cc2c(cc1C(=O)N1CCc3cc(C4CC4)cnc31)[nH]c(=O)c1nnc(C3CCCOC3)n12` (stereo not shown) the value was 204 to 206 °C; for `Cc1cc2c(cc1C(=O)N1CCc3cc(Cl)ccc31)[nH]c(=O)c1nnc(C3CCC3)n12.Cl`, 225 to 228 °C; for `Cc1cc2c(cc1C(=O)N1CCc3cc(F)ccc31)[nH]c(=O)c1nnc(C3CCC3)n12.Cl`, 223 to 226 °C.
Next, `Cc1cc2c(cc1C(=O)N1CCc3cc(Cl)ccc31)[nH]c(=O)c1nnc(C3(C)CCOCC3)n12.Cl`: 229 to 232 °C.
Regarding `COCc1cc2c(cc1C(=O)N1Cc3cccc(F)c3C1)[nH]c(=O)c1cnc(C3CCOCC3)n12.Cl`, the melting point was 277 °C (dec.).
In the case of `Cc1cc2c(cc1C(=O)N1CCc3cc(F)ccc31)[nH]c(=O)c1cnc([C@H]3CC[C@H](O)CC3)n12.Cl`, the melting point was 199 to 201 °C.
Regarding `Cc1cc2c(cc1C(=O)N1CCc3cc(Br)cnc31)[nH]c(=O)c1cnc([C@H]3CC[C@@H](O)CC3)n12.Cl`, the melting point was in the range of 305 to 307 °C.
For `Cc1cc2c(cc1C(=O)N1Cc3ccccc3C1)[nH]c(=O)c1nnc(-c3ccccc3)n12`, the melting point was 316 °C (dec.).
`Cc1c(C(=O)N2CCc3cccnc32)ccc2c1[nH]c(=O)c1cnc(C3CCOCC3)n12.Cl`: the melting point was 320 °C (dec.).
`CC(C)c1ncc2c(=O)[nH]c3cc(C(=O)N4CCOC(c5ccccc5)C4)ccc3n12.Cl` (stereo not shown) came in with a melting point of 268 to 271 °C.
For `CC(C)c1ncc2c(=O)[nH]c3cc(C(=O)N4CCc5c(Cl)cccc5C4)ccc3n12.Cl` the value was 328 to 329 °C; for `Cc1cc2c(cc1C(=O)N1CCc3cc(F)ccc31)[nH]c(=O)c1nnc(C3CCOCC3)n12.Cl`, 221 to 223 °C; for `COCc1cc2c(cc1C(=O)N1CCc3cc(Cl)ccc31)[nH]c(=O)c1nnc(C3(C)CCOCC3)n12.Cl`, 198 to 201 °C.
On to `Cc1ccc2c(c1)CCN2C(=O)c1cc2[nH]c(=O)c3cnc(C4CCOCC4)n3c2cc1C.Cl`, for which the melting point lay within 282 to 284 °C.
The compound `Cc1cc2c(cc1C(=O)N1CCc3ccc([N+](=O)[O-])cc31)[nH]c(=O)c1cnc(C3CCOCC3)n12.Cl` registered a melting point of 301 to 304 °C.
Regarding `Cc1cc2c(cc1C(=O)N1Cc3ccccc3C1)[nH]c(=O)c1nnc(CC3CCS(=O)(=O)CC3)n12.Cl`, the melting point is 253 °C (dec.).
`Cc1cc2c(cc1C(=O)N1Cc3ccccc3C1)[nH]c(=O)c1cnc(C3CCOC3)n12.Cl` (stereo not shown): the melting point is 270 °C (dec.).
In the case of `Cc1cc2c(cc1C(=O)N1Cc3ccccc3C1)[nH]c(=O)c1nnc(CC3CC[S+]([O-])CC3)n12` (stereo not shown), the melting point was 248 °C (dec.).
Consider `Cc1cc2c(cc1C(=O)N1Cc3ccccc3C1)[nH]c(=O)c1nnc(C3CCCC3)n12`, for which the melting point is 318 °C (dec.).
Regarding `Cc1cc2c(cc1C(=O)N1Cc3cccc(Cl)c3C1)[nH]c(=O)c1nnc(C3CCOCC3)n12`, the melting point was 329 °C (dec.).
Compound `Cc1cc2c(cc1C(=O)N1CCOC(c3ccccc3)C1)[nH]c(=O)c1cnc(C3CCCC3)n12` (stereo not shown) yielded a melting point of 304 to 305 °C.
`Cc1cc2c(cc1C(=O)N1CCN(C)C(c3ccccc3)C1)[nH]c(=O)c1cnc(C3CCCC3)n12` (stereo not shown) registered a melting point of 246 to 248 °C.
Take `Cc1cc2c(cc1C(=O)N1Cc3ccccc3C1)[nH]c(=O)c1cnc(C3CCCC3)n12`: the melting point was 304 °C (dec.).

The record behind these values is US8674096B2, “Substituted imidazo[1,5-a]quinoxalin-4-ones as phosphodiesterase 9 inhibitors” (priority 2009, dated 2014).
